Laboratory results: patent publication US4335249A, “Herbicidal diphenyl ethers, sulfides, sulfoxides and sulfones” (Rohm and Haas Company, priority 1976, dated 1982)

Experiments:
Type in all cases: in vivo
[1] = tested on: tomato (Lycopersicon esculentum); assay: Preemergence herbicidal activity, tomato; conditions: Preemergence
Method in brief: (§1)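 Pre: flats treated immediately post-planting. Post: treated 2 wk after germination. Spray = acetone/water solution, 50 gal/acre carrier, rate in lb/A. Read ~2 wk after treatment as average % plants killed.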

[2] = tested on: velvetleaf (Abutilon theophrasti); assay: Preemergence herbicidal activity, velvetleaf; conditions: Preemergence
Method in brief: as §1

[3] = tested on: barnyardgrass (Echinochloa crusgalli); assay: Preemergence herbicidal activity, barnyardgrass; conditions: Preemergence
Method in brief: (§2)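 Control of the weed species is the read-out, following spray application at a given rate in lb/A. Flats of seeded soil received treatment either directly upon planting or, for postemergence, two weeks after seedlings emerged. Spray carrier was aqueous acetone at 50 gallons per acre equivalent.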

[4] = tested on: downybrome (Bromus tectorum); assay: Preemergence herbicidal activity, downybrome; conditions: Preemergence
Method in brief: as §1

foxtail (Setaria spp.) [5] = assay: Preemergence herbicidal activity, foxtail; conditions: Preemergence
Method in brief: as §1

wild oats (Avena fatua) [6] = assay: Preemergence herbicidal activity, wild oats; conditions: Preemergence
Method in brief: as §1

[7] = tested on: tomato (Lycopersicon esculentum); assay: Postemergence herbicidal activity, tomato; conditions: Postemergence
Method in brief: as §1

[8] = tested on: barnyardgrass (Echinochloa crusgalli); assay: Postemergence herbicidal activity, barnyardgrass; conditions: Postemergence
Method in brief: as §2

[9] = tested on: downybrome (Bromus tectorum); assay: Postemergence herbicidal activity, downybrome; conditions: Postemergence
Method in brief: as §1

foxtail (Setaria spp.) [10] = assay: Postemergence herbicidal activity, foxtail; conditions: Postemergence
Method in brief: as §1

wild oats (Avena fatua) [11] = assay: Postemergence herbicidal activity, wild oats; conditions: Postemergence
Method in brief: as §1

[12] = tested on: crabgrass (Digitaria spp.); assay: Preemergence herbicidal activity, crabgrass
Procedure: (§3) Using the procedure described below, compounds of the invention are evaluated for control of several of the following plant species:
(§4) The following est procedure is employed. Seeds of selected crops and weeds are planted in soil in flats. For preemergence tests, the flats are treated with the test compound immediately after the planting. For postemergence tests, the seeds are allowed to germinate, and after two weeks the flats are treated with the test compound. The compound to be evaluated is dissolved in acetone, diluted with water, and sprayed over the flats using a carrier volume equivalent to 50 gallons per acre at the rate of application (pounds per acre, lb/A.) specified in the tables. About two weeks after the application of the test compound, the state of growth of the plants is observed and the phytotoxic effect of the compound is evaluated. Tables III and IV give the average percent control achieved by test compounds in terms of the percent of the plants which are killed by the compounds.

corn (Zea mays) = assay: Preemergence herbicidal activity, corn
Procedure: as §3, §4

rice (Oryza sativa) [13] = assay: Preemergence herbicidal activity, rice
Procedure: as §3, §4

soybean (Glycine max) [14] = assay: Preemergence herbicidal activity, soybean
Procedure: as §3, §4

wheat (Triticum sativum) [15] = assay: Preemergence herbicidal activity, wheat
Procedure: as §3, §4

rice (Oryza sativa) [16] = assay: Postemergence herbicidal activity, rice
Procedure: as §3, §4

soybean (Glycine max) [17] = assay: Postemergence herbicidal activity, soybean
Procedure: as §3, §4

wheat (Triticum sativum) [18] = assay: Postemergence herbicidal activity, wheat
Procedure: as §3, §4

For `CCOC(=O)C(C)Oc1ccc(Oc2ccc(C(F)(F)F)cc2Cl)cc1` (stereo not drawn) [Example 1, Ethyl 2-[4-(2-chloro-4-trifluoromethylphenoxy)phenoxy] propionate], the “% control, Tomato” value ([1]; 1/2 lb/A (Table III)) was 0%, the “% control, Tomato” value ([1]; 1 lb/A (Table III)) was 0% and the “% control, Tomato” value ([1]; 2 lb/A (Table III)) was 0%. For the same compound, the “% control, Velvetleaf” value ([2]; 1/2 lb/A (Table III)) was 0%, the “% control, Velvetleaf” value ([2]; 1 lb/A (Table III)) was 0% and the “% control, Velvetleaf” value ([2]; 2 lb/A (Table III)) was 0%. The “% control, Barnyardgrass” value ([3]; 1/2 lb/A (Table III)) was 99%, the “% control, Barnyardgrass” value ([3]; 1 lb/A (Table III)) was 100% and the “% control, Barnyardgrass” value ([3]; 2 lb/A (Table III)) was 100%. For the same compound, the “% control, Downybrome” value ([4]; 1/2 lb/A (Table III)) was 0%, the “% control, Downybrome” value ([4]; 1 lb/A (Table III)) was 80% and the “% control, Downybrome” value ([4]; 2 lb/A (Table III)) was 90%. The “% control, Foxtail” value (foxtail (Setaria spp.) [5]; 1/2 lb/A (Table III)) was 100%, the “% control, Foxtail” value (foxtail (Setaria spp.) [5]; 1 lb/A (Table III)) was 100% and the “% control, Foxtail” value (foxtail (Setaria spp.) [5]; 2 lb/A (Table III)) was 100%. For the same compound, the “% Control, Wild Oats” value (wild oats (Avena fatua) [6]; 1/2 lb/A (Table III)) was 0%, the “% Control, Wild Oats” value (wild oats (Avena fatua) [6]; 1 lb/A (Table III)) was 60% and the “% Control, Wild Oats” value (wild oats (Avena fatua) [6]; 2 lb/A (Table III)) was 99%. For the same compound, the “% control, Tomato” value ([7]; 1/2 lb/A (Table III)) was 10%, the “% control, Tomato” value ([7]; 1 lb/A (Table III)) was 30% and the “% control, Tomato” value ([7]; 2 lb/A (Table III)) was 80%. The “% control, Barnyardgrass” value ([8]; 1/2 lb/A (Table III)) was 100%, the “% control, Barnyardgrass” value ([8]; 1 lb/A (Table III)) was 100% and the “% control, Barnyardgrass” value ([8]; 2 lb/A (Table III)) was 100%. For the same compound, the “% control, Downybrome” value ([9]; 1/2 lb/A (Table III)) was 70%, the “% control, Downybrome” value ([9]; 1 lb/A (Table III)) was 80% and the “% control, Downybrome” value ([9]; 2 lb/A (Table III)) was 90%. The “% control, Foxtail” value (foxtail (Setaria spp.) [10]; 1/2 lb/A (Table III)) was 100%, the “% control, Foxtail” value (foxtail (Setaria spp.) [10]; 1 lb/A (Table III)) was 100% and the “% control, Foxtail” value (foxtail (Setaria spp.) [10]; 2 lb/A (Table III)) was 100%. The “% Control, Wild Oats” value (wild oats (Avena fatua) [11]; 1/2 lb/A (Table III)) was 100%, the “% Control, Wild Oats” value (wild oats (Avena fatua) [11]; 1 lb/A (Table III)) was 100% and the “% Control, Wild Oats” value (wild oats (Avena fatua) [11]; 2 lb/A (Table III)) was 100%. The “% Control, Crabgrass” value ([12]; 1/2 lb/A (Table III)) was 100%, the “% Control, Crabgrass” value ([12]; 1 lb/A (Table III)) was 100% and the “% Control, Crabgrass” value ([12]; 2 lb/A (Table III)) was 100%. For the same compound, the “% Control, Corn” value (corn (Zea mays); 1/2 lb/A (Table III)) was 0%, the “% Control, Corn” value (corn (Zea mays); 1 lb/A (Table III)) was 60% and the “% Control, Corn” value (corn (Zea mays); 2 lb/A (Table III)) was 99%. The “% Control, Rice” value (rice (Oryza sativa) [13]; 1/2 lb/A (Table III)) was 0%, the “% Control, Rice” value (rice (Oryza sativa) [13]; 1 lb/A (Table III)) was 80% and the “% Control, Rice” value (rice (Oryza sativa) [13]; 2 lb/A (Table III)) was 100%. For the same compound, the “% Control, Soybean” value (soybean (Glycine max) [14]; 1/2 lb/A (Table III)) was 0%, the “% Control, Soybean” value (soybean (Glycine max) [14]; 1 lb/A (Table III)) was 0% and the “% Control, Soybean” value (soybean (Glycine max) [14]; 2 lb/A (Table III)) was 0%. For the same compound, the “% Control, Wheat” value (wheat (Triticum sativum) [15]; 1/2 lb/A (Table III)) was 0%, the “% Control, Wheat” value (wheat (Triticum sativum) [15]; 1 lb/A (Table III)) was 0% and the “% Control, Wheat” value (wheat (Triticum sativum) [15]; 2 lb/A (Table III)) was 0%. For the same compound, the “% Control, Rice” value (rice (Oryza sativa) [16]; 1/2 lb/A (Table III)) was 70%, the “% Control, Rice” value (rice (Oryza sativa) [16]; 1 lb/A (Table III)) was 99% and the “% Control, Rice” value (rice (Oryza sativa) [16]; 2 lb/A (Table III)) was 90%. The “% Control, Soybean” value (soybean (Glycine max) [17]; 1/2 lb/A (Table III)) was 20%, the “% Control, Soybean” value (soybean (Glycine max) [17]; 1 lb/A (Table III)) was 30% and the “% Control, Soybean” value (soybean (Glycine max) [17]; 2 lb/A (Table III)) was 40%. For the same compound, the “% Control, Wheat” value (wheat (Triticum sativum) [18]; 1/2 lb/A (Table III)) was 80%, the “% Control, Wheat” value (wheat (Triticum sativum) [18]; 1 lb/A (Table III)) was 90% and the “% Control, Wheat” value (wheat (Triticum sativum) [18]; 2 lb/A (Table III)) was 95%.
